Laboratory results from article PMC9822073, “Synthesis, Cytotoxic Evaluation, and Structure-Activity Relationship of Substituted Quinazolinones as Cyclin-Dependent Kinase 9 Inhibitors” (Molecules, 2022).
Like-named read-outs stand apart in the source and are kept apart here.

Tests used:
CDK9/cyclin T = CDK9/cyclin T (Homo sapiens, UniProt P50750); assay: In vitro luminescent CDK9 kinase assay (Kinase-Glo MAX); format: biochemical; conditions: for reduction in CDK9 inhibitory activity: compared with compound 25
Protocol: In vitro luminescent CDK9 kinase assay was performed as reported previously using Kinase- Glo® MAX as a detection reagent. Briefly, 5 μL of each inhibitor in concentrations ranging from 10 μM to 1 nM (10 μM, 1 μM, 0.1 μM, 0.01 μM, and 0.001 μM) and 10 μL of enzyme substrate were mixed in 20 μL of kinase assay buffer (obtained from BPS Bioscience, catalog #79334) at room temperature. Then 20 μL of 5 ng/μL CDK9/cyclin T was added to the mixture to initiate the reaction. After 45 min, 50 μL of Kinase-Glo® Max reagent was added, and the resulting mixture was incubated for 15 min at room temperature. The chemiluminescence was measured microplate reader, and IC50 values were calculated using Prism 8.0 (GraphPad Software, San Diego, CA, USA).

MCF-7 cell line = assay: MTT metabolic (antiproliferative) assay; conditions: read-out: Cytotoxicity IC50, MCF-7, 48 h, mean ± SD
Protocol: The antiproliferative activity of the twenty-seven compounds was evaluated by 3-(4,5-dimethylthiazol-2-yl)-2,5-diphenyltetrazolium bromide (MTT) metabolic assay against the MCF-7 cell line, according to a previous method [26].

CDK9 = test system: CDK9; design: method as in PMID 33142413, PMID 24150998; conditions: Figure 2; cited from earlier work
[1] = CDK9 IC50 as used for LE and LLE, read-out: IC50 (CDK9, Table 4)
[2] = negative log of the CDK9 IC50, read-out: pIC50 (converted)

Sequence of CDK9/cyclin T (P50750 whole entry): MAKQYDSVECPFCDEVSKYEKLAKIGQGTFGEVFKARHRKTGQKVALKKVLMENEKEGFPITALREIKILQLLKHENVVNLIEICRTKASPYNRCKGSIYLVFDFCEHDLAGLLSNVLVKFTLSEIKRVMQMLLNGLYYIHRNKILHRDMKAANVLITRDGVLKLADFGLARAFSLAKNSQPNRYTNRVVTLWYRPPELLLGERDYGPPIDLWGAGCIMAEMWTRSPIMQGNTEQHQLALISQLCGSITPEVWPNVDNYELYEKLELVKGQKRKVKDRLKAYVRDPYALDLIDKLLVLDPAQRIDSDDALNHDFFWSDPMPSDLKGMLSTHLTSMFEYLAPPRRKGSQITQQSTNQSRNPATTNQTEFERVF
Sequence of CDK9/cyclin T (O60563 whole entry partner): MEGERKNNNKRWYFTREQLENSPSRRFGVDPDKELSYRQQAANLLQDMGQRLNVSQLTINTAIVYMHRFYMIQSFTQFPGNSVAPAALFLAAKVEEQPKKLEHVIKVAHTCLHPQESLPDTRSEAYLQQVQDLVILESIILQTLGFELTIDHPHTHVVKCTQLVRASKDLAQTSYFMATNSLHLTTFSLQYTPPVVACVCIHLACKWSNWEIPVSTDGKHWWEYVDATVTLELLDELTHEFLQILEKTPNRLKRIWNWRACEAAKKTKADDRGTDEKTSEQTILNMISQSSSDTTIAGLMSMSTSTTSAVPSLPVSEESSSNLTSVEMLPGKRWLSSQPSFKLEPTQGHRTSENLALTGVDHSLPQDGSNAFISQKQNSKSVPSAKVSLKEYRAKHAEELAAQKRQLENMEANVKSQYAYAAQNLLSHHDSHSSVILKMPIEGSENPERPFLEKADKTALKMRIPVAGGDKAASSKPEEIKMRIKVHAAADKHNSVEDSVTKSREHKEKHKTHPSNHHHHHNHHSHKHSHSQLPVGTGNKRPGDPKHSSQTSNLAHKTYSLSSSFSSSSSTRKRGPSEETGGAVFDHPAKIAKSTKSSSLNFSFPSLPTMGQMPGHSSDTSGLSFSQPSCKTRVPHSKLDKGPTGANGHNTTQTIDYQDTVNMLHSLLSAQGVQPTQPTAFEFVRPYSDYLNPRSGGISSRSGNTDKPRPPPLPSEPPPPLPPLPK

SMILES | IC50 (CDK9/cyclin T; [1]) | IC50 (CDK9/cyclin T; mean ± SD, read-out: CDK9 IC50) | IC50 (MCF-7 cell line) | further results
Cc1ccc2nc(-c3cccc(Br)c3)[nH]c(=S)c2c1 [Compound 26, 2-(3-Bromophenyl)-6-methylquinazoline-4(3H)-thione] | 289 nM | 289 ± 2 nM | 5210 ± 170 nM | reduction in CDK9 inhibitory activity (CDK9/cyclin T): 2 fold
NS(=O)(=O)c1ccc(CCn2c(SCC(=O)Nc3ccc(Cl)cc3)nc3ccccc3c2=O)cc1 [Compound 10] | 193 nM | 193 ± 3 nM | 1040 ± 70 nM | 
O=c1[nH]cnc2ccc(I)cc12 [Compound 17] | 639 nM | 639 ± 4 nM | 3880 ± 120 nM | 
Cc1ccc(NC(=O)CSc2nc3ccccc3c(=O)n2CCc2ccc(S(N)(=O)=O)cc2)cc1 [Compound 4] | 788 nM | 788 ± 12 nM | 160 ± 20 nM | 
O=c1[nH]c(-c2cccs2)nc2ccc(I)cc12 [Compound 18] | 296 nM | 296 ± 3 nM | 21400 ± 680 nM | 
CCOc1ccc(NC(=O)CSc2nc3ccccc3c(=O)n2CCc2ccc(S(N)(=O)=O)cc2)cc1 [Compound 7] | 115 nM | 115 ± 2 nM | 1570 ± 40 nM | increase of CDK9 inhibitory activity (CDK9/cyclin T; compared to the hit compound 1): around 6 fold
CN1CC[C@H](c2c(O)cc(O)c3c(=O)cc(-c4ccccc4Cl)oc23)[C@H](O)C1 [Flavopiridol, flavopiridol, reference compound] |  |  | 40 ± 1 nM | 
NC(=O)CSc1nc2ccccc2c(=O)n1CCc1ccc(S(N)(=O)=O)cc1 [Compound 2] | 454 nM | 454 ± 6 nM | 2310 ± 390 nM | 
NS(=O)(=O)c1ccc(CCn2c(SCC(=O)Nc3ccc(Br)cc3)nc3ccccc3c2=O)cc1 [Compound 9] | 131 nM | 131 ± 2 nM | 1720 ± 260 nM | 
NS(=O)(=O)c1ccc(CCn2c(SCC(=O)NCc3ccc(F)cc3)nc3ccccc3c2=O)cc1 [Compound 12] | 218 nM | 218 ± 4 nM | 690 ± 230 nM | 
NS(=O)(=O)c1ccc(CCn2c(SCC(=O)Nc3ccccc3)nc3ccccc3c2=O)cc1 [Compound 3] | 421 nM | 421 ± 6 nM | 820 ± 80 nM | 
NS(=O)(=O)c1ccc(CCn2c(SCC(=O)Nc3ccc(F)cc3)nc3ccccc3c2=O)cc1 [Compound 11] | 336 nM | 336 ± 5 nM | 3860 ± 780 nM | 
Cc1ccc2nc(-c3cccc(Br)c3)oc(=O)c2c1 [Compound 24, 2-(3-Bromophenyl)-6-methyl-4H-benzo[d][1,3]oxazin-4-one] | 486 nM | 486 ± 4 nM | 10400 ± 330 nM | reduction in CDK9 inhibitory activity (CDK9/cyclin T): 3 fold
COc1ccc(NC(=O)CSc2nc3ccccc3c(=O)n2CCc2ccc(S(N)(=O)=O)cc2)cc1 [Compound 6] | 463 nM | 463 ± 7 nM | 4650 ± 1380 nM | 
CC(Sc1nc2ccccc2c(=O)n1CCc1ccc(S(N)(=O)=O)cc1)C(=O)Nc1ccccc1 (centres unmarked) [Compound 15] | 444 nM | 444 ± 7 nM | 670 ± 180 nM | 
NS(=O)(=O)c1ccc(CCn2c(SCc3ccccc3)nc3ccccc3c2=O)cc1 [VI] |  |  |  | IC50 (CDK9): 67000 nM
NS(=O)(=O)c1ccc(CCn2c(=S)[nH]c3ccccc3c2=O)cc1 [Compound 1, 2-Mercapto-3-(4-sulfamoylphenethyl)quinazolin-4-one] | 644 nM | 644 ± 7 nM | 650 ± 150 nM | 
CC(=O)c1ccc(NC(=O)CSc2nc3ccccc3c(=O)n2CCc2ccc(S(N)(=O)=O)cc2)cc1 [Compound 5] | 829 nM | 829 ± 14 nM | 180 ± 90 nM | 
Cc1ccc2nc(-c3cccc(Br)c3)[nH]c(=O)c2c1 [Compound 25, 2-(3-Bromophenyl)-6-methylquinazolin-4(3H)-one] | 142 nM | 142 ± 1 nM | 16800 ± 540 nM | 
Cc1ccc2nc(-c3cccc(Br)c3)n(N)c(=O)c2c1 [Compound 27, 3-Amino-2-(3-bromophenyl)-6-methylquinazolin-4(3H)-one] | 835 nM | 835 ± 6 nM | 28700 ± 920 nM | reduction in CDK9 inhibitory activity (CDK9/cyclin T): approximately 6 fold
COc1ccc(CNC(=O)CSc2nc3ccccc3c(=O)n2CCc2ccc(S(N)(=O)=O)cc2)cc1 [Compound 13] | 334 nM | 334 ± 6 nM | 840 ± 150 nM | 
CC(Sc1nc2ccccc2c(=O)n1CCc1ccc(S(N)(=O)=O)cc1)C(=O)Nc1ccc(Cl)cc1 (centres unmarked) [Compound 16] |  | 350 ± 6 nM | 730 ± 10 nM | IC50 (CDK9/cyclin T; [2]): 347 nM
O=c1[nH]c(-c2ccc(Cl)cc2)nc2ccc([N+](=O)[O-])cc12 [Compound 20] | 434 nM | 434 ± 3 nM | 6070 ± 190 nM | reduction in potency against CDK9 (CDK9/cyclin T; compound 20 versus compound 19): 1 fold
COc1ccc(CNC(=O)CSc2nc3ccccc3c(=O)n2CCc2ccc(S(N)(=O)=O)cc2)cc1OC [Compound 14] | 229 nM | 229 ± 4 nM | 590 ± 100 nM | 
Cc1ccc(-c2nc3ccc(Cl)cc3c(=O)[nH]2)cc1 [Compound 19] | 282 nM | 282 ± 3 nM | 12300 ± 390 nM | 
Cc1ccc(NC(=O)c2cccc(Br)c2)c(C(=O)O)c1 [Compound 23, 2-(3-Bromobenzamido)-5-methylbenzoic acid] |  | 210 ± 3 nM | 11500 ± 370 nM | IC50 (CDK9/cyclin T; [2]): 209 nM; melting point: 155 to 157 °C
Cc1ccc2nc(-c3cccc(Br)c3)n(O)c(=O)c2c1 [Compound 28, 2-(3-Bromophenyl)-3-hydroxy-6-methylquinazolin-4(3H)-one] |  | 210 ± 2 nM | 6270 ± 200 nM | IC50 (CDK9/cyclin T; [2]): 209 nM
COc1cc(NC(=O)CSc2nc3ccccc3c(=O)n2CCc2ccc(S(N)(=O)=O)cc2)cc(OC)c1OC [Compound 8] | 501 nM | 501 ± 9 nM | 2480 ± 320 nM | 
